# Earlier results in US7276228B2, “Methods for treating hematological disorders through inhibition of DNA methylation and histone deacetylase” (SuperGen, Inc., priority 2001, dated 2007).
# Assays:
# HDAC = details: for concentration at which HDAC activity is inhibited: literature statements
# mammalian HDAC = details: Yoshida et al. (1990)
# DNA methyltransferase = details: decitabine replacing 5-methylcytosine at a site of methylation in DNA; Juttermann et al. (1994)
compound,measurement,setting,value
depudecin,concentration at which HDAC activity is inhibited,HDAC,micromolar concentrations
C/C=C1\NC(=O)[C@H]2CSSCC/C=C/[C@H](CC(=O)N[C@H](C(C)C)C(=O)N2)OC(=O)[C@H](C(C)C)NC1=O [FR901228],concentration at which HDAC activity is inhibited,HDAC,micromolar concentrations
"CC(/C=C/C(=O)NO)=C\[C@@H](C)C(=O)c1ccc(N(C)C)cc1 [TSA, trichostatin A]",inhibition of mammalian HDAC,mammalian HDAC,potent inhibitor
"O=C(/C=C/c1cccc(C(=O)NO)c1)NO [CBHA, m-carboxy-cinnamic acid bishydroxamic acid]",concentration at which HDAC is inhibited,"HDAC; in vitro or in vivo, Glick et al. (1999)",micromolar concentration or lower
"Nc1ncn([C@H]2C[C@H](O)[C@@H](CO)O2)c(=O)n1 [decitabine, 5-aza-2′-deoxycytidine]",inactivation of DNA methyltransferase,DNA methyltransferase,irreversible inactivation
